Patent US5928933A, “Process for the enzymatic resolution of N-(alkoxycarbonyl)-4-ketoproline alkyl esters or N-(alkoxycarbonyl)-4-hydroxyproline alkyl esters using Candida antarctica lipase B” (priority 1998, dated 1999)
Where two headings read alike, the source gives them in different places.

Tests used:
[1] = target: T1, Candida antartica lipase fraction B (CALB) (Moesziomyces antarcticus, UniProt P41365); format: biochemical; details: 0.20m succinate, 5 h, pH 6
T1 construct: purchased Boehringer Mannheim CHIRAZYME L-2
T1 sequence (P41365 26-342): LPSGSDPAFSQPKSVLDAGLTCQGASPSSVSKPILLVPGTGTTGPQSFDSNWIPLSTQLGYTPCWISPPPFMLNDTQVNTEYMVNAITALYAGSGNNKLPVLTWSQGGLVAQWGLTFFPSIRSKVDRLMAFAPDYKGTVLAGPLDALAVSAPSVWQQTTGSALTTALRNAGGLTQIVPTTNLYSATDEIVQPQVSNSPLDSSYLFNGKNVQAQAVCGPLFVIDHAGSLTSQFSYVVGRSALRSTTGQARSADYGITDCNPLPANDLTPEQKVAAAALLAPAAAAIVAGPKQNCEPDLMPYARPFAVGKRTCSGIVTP
Procedure: (§1) Reacting a 0.10M solution of the 1:1 mixture of KDP(MEMC) and KLP(MEMC) in 0.20M succinate (pH 6.0) at 25° C. for 5 h with approximately 1-3 mg/mL of Candida antartica lipase fraction B (CALB) produced a 95% ee (substrate) of KDP(MEMC) at 51% conversion. […] The calculated enantioselectivity (E) at 51% conversion was E=81.
(§2) The enzymatic hydrolysis reaction of KDP(MEMC) and KLP(MEMC) using CALB (described above) was repeated at pH 5.0 in 0.20M acetate buffer (Example 2), and a 100% ee (substrate) of the D-isomer was obtained at 51% conversion (E=>1000); the reaction rate was approximately 50% of the rate at pH 6.0, and the slight loss of the D-isomer at pH 5.0 was again observed in the absence of added enzyme (95% recovery at pH 5.0 after 24 h with no enzyme).
The procedure described in Example I was repeated using Candida antartica lipase fraction B (CALB), except that the reaction was run in 0.200M sodium cetate (pH 5.0) instead of the 0.20M sodium succinate buffer (pH 6.0) used for Candida antartica lipase fraction B in Example 1. Aqueous solutions (5.0 mL) containing varying concentrations of a racemic mixture of N-(methoxycarbonyl)-4-keto-D,L-proline methyl ester and CALB were mixed at 15° C., 25° C., 35° C. or 45° C.
An aqueous solution (5.0 mL) containing 25 mM N-(methoxycarbonyl)-4-keto-Dproline methyl ester and 25 mM N-(methoxycarbonyl)-4-keto-L-proline methyl ester in 0.200M sodium acetate (pH 5.0) was mixed with 2.5 g of immobilized Candida antartica lipase fraction B (Boehringer Mannheim, CHIRAZYME® L-2, c.-f., C2, lyo.) at 25° C. […] The dichloromethane extract was then analyzed by chiral gas chromatography on a Chiraldex G-TA column (Advanced Separation Technologies, Inc., 50 m×0.32 mm ID) to determine the amounts of the unreacted D- and L-isomers. After 31 h, an 85% enantiomeric excess of N-(methoxycarbonyl)-4-keto-D-proline methyl ester was obtained at 41% conversion of the racemic mixture.
A 200 mL aqueous solution containing 0.200M sodium acetate (pH 5.0), 1.3325 g of Candida antartica lipase fraction B, and 4.02 g of racemic N-(methoxycarbonyl)-4-keto-D,L-proline methyl ester (100 mM) was stirred at 25° C. After 24 h, an 96% enantiomeric excess of N-(methoxycarbonyl)-4-keto-D-proline methyl ester was obtained at 50% conversion of the racemic mixture. The reaction mixture was filtered using a 10,000 MWCO membrane filter (Amicon) to remove the enzyme catalyst, and the filtrate extracted with three 200 mL portions of dichloromethane. The combined organic extracts were dried over magnesium sulfate, filtered, and the dichloromethane removed from the filtrate by rotary evaporation at reduced pressure. Residual dichloromethane was removed from the resulting colorless oil at high vacuum (50 millitorr) to produce N-(methoxycarbonyl)-4-keto-D-proline methyl ester as a white solid (1.99 g, 99% isolated yield, 99% purity (by GC), 97% ee).
An aqueous solution (2.0 mL) containing 50 mM N-(ethoxycarbonyl)-4-keto-D-proline ethyl ester and 50 mM N-(ethoxycarbonyl)-4-keto-L-proline ethyl ester in 0.200M sodium acetate (pH 5.0) and 30 mg/mL of Candida antartica lipase fraction B was mixed at 25° C. […] The dichloromethane extract was then analyzed by chiral gas chromatography on a Chiraldex G-TA column (Advanced Separation Technologies, Inc., 50 m×0.32 mm ID) to determine the amounts of the unreacted D- and L-isomers. After 24 h, a 100% enantiomeric excess of N-(ethoxycarbonyl)-4-keto-D-proline ethyl ester was obtained at 51% conversion of the racemic mixture.
An aqueous solution (1.0 mL) containing 19 mM of N-(2-phenylacetyl)-4-keto-D-proline methyl ester and 19 mM of N-(2-phenylacetyl)-4-keto-L-proline methyl ester in 0.200M sodium acetate (pH 5.0) and 25 mg/mL of Candida antartica lipase fraction B was mixed at 25° C. […]

[2] = Stability of aqueous solutions of the esters in the absence of enzyme; format: physicochemical; details: for isomer lost without added enzyme: pH 6.0, identical reaction conditions (0.20M succinate, 25° C.), 5 h
Procedure: as §1, §2
The pH of the reaction mixture is also chosen to optimize the reaction rate, the stability of the enzyme catalyst activity, and the stability of the ketoproline or hydroxyproline derivatives. The stability of aqueous solutions of N-(alkoxy-carbonyl)-4-ketoproline alkyl esters or N-(alkoxycarbonyl)-4-hydroxyproline alkyl esters were dependent on pH. […] For resolution of mixtures of N-(alkoxycarbonyl)-4-keto-D,L-proline alkyl esters, a pH range of from 3.0 to 6.0 is preferred, and a pH range of from 4.0 to 5.0 is most preferred. For resolution of diastereomeric mixtures of N-(alkoxycarbonyl)-4-hydroxy-proline alkyl esters, a pH range of from 3.0 to 7.5 is preferred, and a pH range of from 6.0 to 7.0 is most preferred.

[3] = target: T1, Candida antartica lipase fraction B (CALB); format: biochemical
Procedure: Using CALB for the diastereomeric resolution of five of the six possible pairs of diastereomers of N-(methoxycarbonyl)-4-hydroxyproline methyl esters produced the diastereomeric excesses at the indicated conversions listed in Table 1 below.
(§3) A 3.0 mL aqueous solution containing 50 mM N-(methoxycarbonyl)-trans-4-hydroxy-L-proline methyl ester and 50 mM N-(methoxycarbonyl)-cis-4-hydroxy-D-proline methyl ester in 0.100M potassium phosphate (pH 7.0) was mixed with 2.1 mg/mL of Candida antartica lipase fraction B at 25° C. The reaction was analyzed by removal of a 0.200 mL sample and mixing with an equivalent volume of 0.100M propionic acid (HPLC internal standard) in water. The resulting solution was filtered through a 10K molecular weight cut-off filter to remove the enzyme and the filtrate analyzed by high pressure liquid chromatography on a HPX-87H column (Bio-Rad, 30 cm×7.8 mm) to determine the percent conversion of each isomer of the diastereomeric mixture, and the diastereomeric excess of the N-(methoxycarbonyl)-cis-4-hydroxy-D-proline methyl ester.
A 2.0 mL aqueous solution containing 50 mM N-(methoxycarbonyl)-trans-4-hydroxy-L-proline methyl ester and 50 mM N-(methoxycarbonyl)-cis-4-hydroxy-D-proline methyl ester in 0.100M potassium phosphate (pH 7.0) was mixed with 403 mg of immobilized Candida antartica lipase fraction B (Boehringer Mannheim, CHIRAZYME® L-2, c.-f., C2, lyo.) at 31° C. The reaction was analyzed by mixing the entire reaction mixture with an equivalent volume of 0.100M propionic acid (HPLC internal standard) in water […]. An aliquot of the resulting solution was filtered through a 10K molecular weight cut-off filter to remove the enzyme and the filtrate analyzed by high pressure liquid chromatography on a HPX-87H column (Bio-Rad, 30 cm×7.8 mm) to determine the percent conversion of each isomer of the distereomeric mixture, and the diastereomeric excess of the N-(methoxycarbonyl)-cis-4-hydroxy-D-proline methyl ester. After 7 h, a 94% diastereomeric excess of N-(methoxycarbonyl)-cis-4-hydroxy-D-proline methyl ester was obtained at 49% conversion of the diastereomeric mixture (3.2% N-(methoxycarbonyl)-trans-4-hydroxy-L-proline methyl ester remained).
as §3, with “A 5.0” for “A 3.0”, “containing 51” for “containing 50”, “and 51” for “and 50”, “with 50” for “with 2.1”, “the N-(methoxycarbonyl)-trans-4-hydroxy-D-prolinemethyl” for “the N-(methoxycarbonyl)-cis-4-hydroxy-D-proline methyl”
A 5.0 mL aqueous solution containing 50 mM N-(methoxycarbonyl)-cis-4-hydroxy-D-proline methyl ester and 50 mM N-(methoxycarbonyl)-cis-4-hydroxy-L-proline methyl ester in 0.100M potassium phosphate (pH 7.0) and 50 mg/mL of Candida antartica lipase fraction B was mixed at 25° C. The reaction was analyzed by removal of two 0.200 mL aliquots at pre-determined times. One 0.200 mL aliquot was mixed with an equivalent volume of 0.100M propionic acid (HPLC internal standard) in water, and the resulting solution filtered through a 10K molecular weight cut-off filter to remove the enzyme. The filtrate was then analyzed by high pressure liquid chromatography on a HPX-87H column (Bio-Rad, 30 cm×7.8 mm) to determine the total percent conversion of both the D- and L-proline isomers of the N-(methoxycarbonyl)-cis-4-hydroxyproline methyl esters. […]

[4] = target: T1, Candida antartica lipase fraction B (CALB); test: Relative rates of hydrolysis of N-(alkoxycarbonyl)-trans-4-hydroxy-L-proline methyl esters by CALB; format: biochemical; details: 50 mM substrate, 3.0 mg/mL CALB, 25° C.
Procedure: A 2.0 mL aqueous solution containing 50 mM N-(methoxycarbonyl)-trans-4-hydroxy-L-proline methyl ester, or 50 mM N-(ethoxycarbonyl)-trans-4-hydroxy-L-proline methyl ester, or 50 mM N-(tert-butoxycarbonyl)-trans-4-hydroxy-L-proline methyl ester in 0.100M potassium phosphate (pH 7.0) and 3.0 mg/mL of Candida antartica lipase fraction B was mixed at 25° C. The reactions were analyzed by removal of 0.200 mL aliquots at pre-determined times and mixing the sample with an equivalent volume of 0.100M propionic acid (HPLC internal standard) in water, and filtering the resulting solution through a 10K molecular weight cut-off filter to remove the enzyme. The filtrate was then analyzed by high pressure liquid chromatography on a HPX-87H column (Bio-Rad, 30 cm×7.8 mm) to determine the percent conversion of the N-(alkoxycarbonyl)-trans-4-hydroxy-L-proline methyl ester. Complete hydrolysis of the methyl ester of the N-methoxy-, N-ethoxy-, and N-tert-butoxycarbonyl derivatives occurred in 5 h, 2 h, and 6 h, respectively, and the initial reaction rates were 5.7, 18.7, and 3.3 micromoles/h/mg enzyme catalyst, respectively.

[5] = candida antartica lipase b, 24 h, 51000 µM, pH 7

Compound: COC(=O)[C@@H]1CC(=O)CN1C(=O)OC [KLP(MEMC), N-(methoxycarbonyl)-4-keto-L-proline methyl ester]
- share of isomer remaining at 51% conversion [1]: 2.5%
- isomer lost without added enzyme [2]: approximately 3%

Compound: COC(=O)[C@@H]1C[C@H](O)CN1C(=O)OC [CHLP(MEMC), N-(methoxycarbonyl)-cis-4-hydroxy-L-proline methyl ester]
- isomer remaining ([3]; 50 mM each, 50 mg/mL CALB, pH 7.0, 25° C., 47 h): no N-(methoxycarbonyl)-cis-4-hydroxy-L-proline methyl ester remained
- isomer remaining [3, 5]: 3.0%

Compound: COC(=O)[C@@H]1C[C@@H](O)CN1C(=O)OC [THLP(MEMC), N-(methoxycarbonyl)-trans-4-hydroxy-L-proline methyl ester]
- time to complete hydrolysis of the methyl ester ([4]; 0.100M potassium phosphate pH 7.0): 5 h
- initial reaction rate ([4]; pH 7.0): 5.7 micromoles/h/mg enzyme catalyst
- isomer remaining ([3]; 50 mM each, 2.1 mg/mL CALB, pH 7.0, 25° C., 24 h): no N-(methoxycarbonyl)-trans-4-hydroxy-L-proline methyl ester remained
- isomer remaining ([3]; 50 mM each, 4.0 mg/mL CALB, pH 7.0, 25° C., 24 h): no N-(methoxycarbonyl)-trans-4-hydroxy-L-proline methyl ester remained
- isomer remaining ([3]; candida antartica lipase b, 7 h, 50000 µM, pH 7): 3.2%

Compound: COC(=O)[C@H]1CC(=O)CN1C(=O)OC [KDP(MEMC), N-(methoxycarbonyl)-4-keto-D-proline methyl ester]
- share of isomer remaining at 51% conversion [1]: 97.5%
- recovery with no enzyme ([2]; pH 5.0, after 24 h): 95%
- isomer lost without added enzyme [2]: approximately 3%

Compound: COC(=O)[C@H]1C[C@H](O)CN1C(=O)OC [THDP(MEMC), N-(methoxycarbonyl)-trans-4-hydroxy-D-proline methyl ester]
- isomer remaining [3, 5]: 82.7%

Compound: COC(=O)[C@H]1C[C@@H](O)CN1C(=O)OC [CHDP(MEMC), N-(methoxycarbonyl)-cis-4-hydroxy-D-proline methyl ester]
- methyl ester hydrolysis by CALB ([3]; under reaction conditions): no hydrolysis
